Laboratory results from patent US11192893B2, “Pyrazoloquinazolinone antitumor agents” (The Rockefeller University, priority 2017, dated 2021).
pIC50: −log10 of the molar value.

Tested on: Hedgehog pathway activity
Experiment: Shh-Light luciferase reporter assay of Hedgehog pathway activity (Shh-Light2 cells, SAG-stimulated)
Assay type: cell-based
Conditions: for activity at 2 µM: 2 μM compound, read-out: SHH-light % residual @ 2 μM; for activity at 2 µM / activity at 20 µM: SAG 500 nM; for activity at 20 µM: 20 μM compound, read-out: SHH-light % residual @ 20 μM
Method: To examine the inhibition of dynein 2 in cell-based assays, an established luciferase reporter-based cellular assay of Hedgehog pathway activity was employed [Taipale et al., Nature. 2000; 406(6799): 1005-9]. Signaling in this pathway depends on the function of dynein 2. In this setting, expression of luciferase driven by Hedgehog pathway activity was inhibited by compound 5 with an IC50 value of 0.9±0.5 μM. […] The potencies of these compounds in this cell-based assay match the rank-order of dynein 2 inhibition in vitro. In these assays, Hedgehog pathway activity was stimulated using the Synthetic Agonist of Smoothened (SAG). This compound competes with many Hedgehog pathway inhibitors for binding to Smoothened, a key node in the signaling pathway.
SHH-Light Assay (Steinman et al. eLife 2017; 6:e25174.)
NIH-3T3 cells stably expressing a luciferase reporter downstream of a Gli binding site (Shh-Light2 cells, RRID: CVCL_2721) were maintained in DMEM with 10% bovine calf serum (BCS). Cells were seeded at a density of 30,000 cells/well in 96-well tissue culture-treated plates (Corning, cat #353072) in 100 μL in DMEM+10% BCS, and incubated for 48 hr (Taipale et al., 2000). Wells were washed briefly with PBS. Next […] of low serum media (DMEM+0.5% BCS) containing smoothened agonist (SAG, 500 nM), and either solvent control (0.2% DMSO) or test compound (serial three-fold dilutions of each inhibitor starting from 20 μM) were added to the wells. After 28-32 hr of inhibitor treatment, cells were washed with 50 μL PBS and lysed for >30 min in 30 μL Passive Lysis Buffer (Promega Dual Luciferase kit, cat E1910). 5 uL of each lysate was transferred to white, solid-bottom 96-well plates (Greiner, cat #655075), followed by rapid addition (within 30 s) of 30 μL of Luciferase Assay Reagent using a multichannel pipette. Luminescence for each condition was read using a Synergy Neo plate reader (5 s integration time per well). Cell line identity was confirmed by measurement of the degree of response to Hedgehog pathway stimulation by the synthetic agonist SAG and using previously published values from our groups and others as references (Firestone et al., 2012; Hyman et al., 2009).

SMILES | activity at 2 µM | activity at 20 µM | pIC50 (Table 2, SAG 500 nM, 28-32 hr treatment, read-out: Shh-light IC50)
N#Cc1c(COc2ccc(Cl)cc2)nn2c(=O)c3ccccc3[nH]c12 [Example 42, 2-[(4-Chlorophenoxy)methyl]-9-oxo-4H-pyrazolo[5,1-b]quinazoline-3-carbonitrile] | 105% | 4.5% | –
NC(=O)c1c(CCC(Cl)(Cl)Cl)nn2c(=O)c3ccccc3[nH]c12 [Example 43, 9-Oxo-2-(3,3,3-trichloropropyl)-4,9-dihydropyrazolo[5,1-b]quinazoline-3-carboxamide] | 65% | 15.4% | –
N#Cc1c(CCC(Cl)(Cl)Cl)nn2c(=O)c3ccccc3[nH]c12 [Example 44, 9-Oxo-2-(3,3,3-trichloropropyl)-4H-pyrazolo[5,1-b]quinazoline-3-carbonitrile] | 45.8% | 3.4% | –
NC(=O)c1c(CC2CCCCC2)nn2c(=O)c3ccccc3[nH]c12 [Example 45, 2-(Cyclohexylmethyl)-9-oxo-4H-pyrazolo[5,1-b]quinazoline-3-carboxamide] | 82.4% | 4% | –
N#Cc1c(CC2CCCCC2)nn2c(=O)c3ccccc3[nH]c12 [Example 46, 2-(Cyclohexylmethyl)-9-oxo-4H-pyrazolo[5,1-b]quinazoline-3-carbonitrile] | 67.1% | 5% | –
NC(=O)c1c(CCOc2ccc(Cl)cc2)nn2c(=O)c3ccccc3[nH]c12 [Example 47, 2-[2-(4-Chlorophenoxy)ethyl]-9-oxo-4H-pyrazolo[5,1-b]quinazoline-3-carboxamide] | 54.7% | 11% | –
N#Cc1c(CCOc2ccc(Cl)cc2)nn2c(=O)c3ccccc3[nH]c12 [Example 48, 2-[2-(4-Chlorophenoxy)ethyl]-9-oxo-4H-pyrazolo[5,1-b]quinazoline-3-carbonitrile] | 75.5% | 10.9% | –
NC(=O)c1c(-c2ccc(Cl)cc2Cl)nn2c(=O)c3c(OCc4ccccc4)cccc3[nH]c12 [Example 49, 8-Benzyloxy-2-(2,4-dichlorophenyl)-9-oxo-4H-pyrazolo[5,1-b]quinazoline-3-carboxamide] | 78.3% | 10.8% | –
N#Cc1c(-c2ccc(Cl)cc2Cl)nn2c(=O)c3c(OCc4ccccc4)cccc3[nH]c12 [Example 50, 8-Benzyloxy-2-(2,4-dichlorophenyl)-9-oxo-4H-pyrazolo[5,1-b]quinazoline-3-carbonitrile] | 75.8% | – | –
NC(=O)c1c(C2CCC(F)(F)CC2)nn2c(=O)c3ccccc3[nH]c12 [Example 51, 2-(4,4-Difluorocyclohexyl)-9-oxo-4H-pyrazolo[5,1-b]quinazoline-3-carboxamide] | 92.4% | 103% | –
N#Cc1c(C2CCC(F)(F)CC2)nn2c(=O)c3ccccc3[nH]c12 [Example 52, 2-(4,4-Difluorocyclohexyl)-9-oxo-4H-pyrazolo[5,1-b]quinazoline-3-carbonitrile] | 110% | 76.9% | –
NC(=O)c1c(CC2CC2)nn2c(=O)c3ccccc3[nH]c12 [Example 53, 2-(Cyclopropylmethyl)-9-oxo-4H-pyrazolo[5,1-b]quinazoline-3-carboxamide] | 75.2% | 123% | –
N#Cc1c(CC2CC2)nn2c(=O)c3ccccc3[nH]c12 [Example 54, 2-(Cyclopropylmethyl)-9-oxo-4H-pyrazolo[5,1-b]quinazoline-3-carbonitrile] | 81.7% | – | –
NC(=O)c1c(-c2ccc(Cl)cc2Cl)nn2c(=O)c3cc(OCc4ccccc4)ccc3[nH]c12 [Example 55, 7-Benzyloxy-2-(2,4-dichlorophenyl)-9-oxo-4H-pyrazolo[5,1-b]quinazoline-3-carboxamide] | 62.8% | – | –
N#Cc1c(-c2ccc(Cl)cc2Cl)nn2c(=O)c3cc(OCc4ccccc4)ccc3[nH]c12 [Example 56, 7-Benzyloxy-2-(2,4-dichlorophenyl)-9-oxo-4H-pyrazolo[5,1-b]quinazoline-3-carbonitrile] | 49.6% | – | –
NC(=O)c1c(CCC(F)(F)F)nn2c(=O)c3ccccc3[nH]c12 [Example 57, 9-Oxo-2-(3,3,3-trifluoropropyl)-4H-pyrazolo[5,1-b]quinazoline-3-carboxamide] | 67.9% | – | –

SMILES | activity at 2 µM | activity at 20 µM | pIC50 (Table 2, SAG 500 nM, 28-32 hr treatment, read-out: Shh-light IC50)
N#Cc1c(CCC(F)(F)F)nn2c(=O)c3ccccc3[nH]c12 [Example 58, 9-Oxo-2-(3,3,3-trifluoropropyl)-4H-pyrazolo[5,1-b]quinazoline-3-carbonitrile] | 55.5% | 35.1% | –
N#Cc1c(C2(C(F)(F)F)CC2)nn2c(=O)c3ccccc3[nH]c12 [Example 59, 9-Oxo-2-[1-(trifluoromethyl)cyclopropyl]-4H-pyrazolo[5,1-b]quinazoline-3-carbonitrile] | 89.3% | 45.1% | –
NC(=O)c1c(CCCO)nn2c(=O)c3ccccc3[nH]c12 [Example 60, 2-(3-Hydroxypropyl)-9-oxo-4H-pyrazolo[5,1-b]quinazoline-3-carboxamide] | 78.1% | 99% | –
O=C(O)c1c(-c2ccc(Cl)cc2Cl)nn2c1[nH]c(=O)c1ccccc12 [Example 61, 2-(2,4-Dichlorophenyl)-5-oxo-4H-pyrazolo[1,5-a]quinazoline-3-carboxylic acid] | – | 66.7% | –
NC(=O)c1c(-c2ccc(Cl)cc2Cl)nn2c1[nH]c(=O)c1ccccc12 [Example 62, 2-(2,4-Dichlorophenyl)-5-oxo-4H-pyrazolo[1,5-a]quinazoline-3-carboxamide] | – | 42.1% | –
COc1ccc2c(c1)c(=O)[nH]c1c(C#N)c(C3(c4ccc(Cl)cc4)CC3)nn12 [Example 64, 2-[1-(4-Chlorophenyl)cyclopropyl]-7-methoxy-5-oxo-4H-pyrazolo[1,5-a]quinazoline-3-carbonitrile] | 91.6% | 90.4% | –
COc1ccc2c(c1)c(=O)[nH]c1c(C#N)c(-c3ccc(Cl)cc3Cl)nn12 [Example 65, 2-(2,4-Dichlorophenyl)-7-methoxy-5-oxo-4H-pyrazolo[1,5-a]quinazoline-3-carbonitrile] | 76.9% | -1% | –
N#Cc1ccc2c(c1)c(=O)[nH]c1c(C#N)c(C3(c4ccc(Cl)cc4)CC3)nn12 [Example 66, 2-[1-(4-Chlorophenyl)cyclopropyl]-5-oxo-4H-pyrazolo[1,5-a]quinazoline-3,7-dicarbonitrile] | 39.6% | -3.8% | 5.82
COC(=O)c1c(-c2ccc(Cl)cc2Cl)nn2c(=O)c3ccccc3[nH]c12 [Example 67, Methyl 2-(2,4-dichlorophenyl)-9-oxo-4H-pyrazolo[5,1-b]quinazoline-3-carboxylate] | – | 80.3% | –
CC(C)OC(=O)c1c(-c2ccc(Cl)cc2Cl)nn2c(=O)c3ccccc3[nH]c12 [Example 68, Isopropyl 2-(2,4-dichlorophenyl)-9-oxo-4H-pyrazolo[5,1-b]quinazoline-3-carboxylate] | 90.5% | 110% | –
O=c1c2ccc(Cl)cc2[nH]c2cc(-c3ccc(Cl)cc3Cl)nn12 [Example 69, 6-Chloro-2-(2,4-dichlorophenyl)-4H-pyrazolo[5,1-b]quinazolin-9-one] | 75% | 65.4% | –
O=c1c2ccccc2[nH]c2cc(-c3ccc(Cl)cc3Cl)nn12 [Example 70, 2-(2,4-Dichlorophenyl)-4H-pyrazolo[5,1-b]quinazolin-9-one] | 109% | 113% | –
O=c1c2ccccc2[nH]c2cc(-c3ccc(C(F)(F)F)cc3)nn12 [Example 71, 2-[4-(Trifluoromethyl)phenyl]-4H-pyrazolo[5,1-b]quinazolin-9-one] | 108% | 115% | –
CN(C)Cc1c(-c2ccc(Cl)cc2Cl)nn2c(=O)c3ccccc3[nH]c12 [Example 72, 2-(2,4-Dichlorophenyl)-3-[(dimethylamino)methyl]-4H-pyrazolo[5,1-b]quinazolin-9-one] | 122% | 20.1% | –
O=c1c2ccccc2[nH]c2c(I)c(-c3ccc(Cl)cc3Cl)nn12 [Example 73, 2-(2,4-Dichlorophenyl)-3-iodo-4H-pyrazolo[5,1-b]quinazolin-9-one] | 99.1% | 34.6% | –
